Assay results from publication PMC2226154 (The Journal of General Physiology, 1974).
Read-outs that look alike come from different tables or passages of the source. Blank lines part the entries; values can stand above or below the compound they belong to.

Experiments:
[1] = target: T1, neutral amino acid transport system in rabbit ileum (Oryctolagus cuniculus, UniProt B4XTG9); assay: Inhibition of L-methionine-14C influx across the brush border membrane; details: for fold decrease in apparent affinity: compared to the corresponding parent compound
[2] = measured by Church and Hansch, unpublished; cited from earlier work
[3] = target: T1, neutral amino acid transport system in rabbit ileum; details: direct measurement of influx; cited from earlier work
[4] = target: T1, neutral amino acid transport system in rabbit ileum; details: Hajjar and Curran, phenylalanine analogs; cited from earlier work

- effect on methionine influx ([1]; 30 mM, separate control experiments): minimal effect
Compound: O[C@@H](CS)[C@@H](O)CS (racemic) [Dithiothreitol]

- affinity lower than that of norvaline [1]: approximately 30%
Compound: C=CC[C@H](N)C(=O)O [Allylglycine]

Compound: C[C@H](N)C(=O)O [Alanine]
- log P (octanol/water partition coefficient) [2]: -2.94
- Apparent affinity [3]: 14 M⁻¹

- fold decrease in apparent affinity [1]: ~10 fold
Compound: CC(C)(C)C(N)C(=O)O (stereo not drawn) [tertiary leucine]

Compound: CCSCC[C@H](N)C(=O)O [Ethionine]
- observed ratio of KI ([1]; 0.5 mM methionine (reference)): 1.00
- observed ratio of KI ([1]; 2 mM methionine relative to 0.5 mM): 0.98
- observed ratio of KI ([1]; 3 mM methionine relative to 0.5 mM): 1.08

Compound: N[C@@H](Cc1ccccc1)C(=O)O [Phenylalanine]
- Apparent affinity [4]: 56 M⁻¹

- fold higher affinity than glutamic acid [1]: 10 fold
Compound: CCOC(=O)CCC(N)C(=O)O (stereo not drawn) [Glutamic acid 7-ethyl ester]

- Ki ([1]; read-out: KI observed, Table V, [Na] 35): 5 mM
Compound: CCC(O)C(N)C(=O)O (stereo not drawn) [a-Amino-b-hydroxy valeric acid, a-amino-b-hydroxyvaleric acid]

Compound: O=C(O)C(O)Cc1ccccc1 (stereo not drawn) [phenyllactic acid]
- Apparent affinity [4]: 0.8 M⁻¹

Compound: CC(C)C[C@H](N)C(=O)O [Leucine]
- Apparent affinity [3]: 32 M⁻¹

- fold decrease in apparent affinity [1]: approximately 50 fold
Compound: CSCC[C@@H](N)C(=O)O [D-methionine]

Compound: CN[C@@H](Cc1ccccc1)C(=O)O [N-methyl phenylalanine]
- Apparent affinity [4]: very low apparent affinity

Compound: O=C(O)CCc1ccccc1 [phenylpropionic acid]
- Apparent affinity [4]: 1.2 M⁻¹

- fold higher affinity than glutamic acid [1]: 10 fold
Compound: COC(=O)CC[C@H](N)C(=O)O [Glutamic acid Y-methyl ester]

Compound: NCC(=O)O [Glycine]
- Apparent affinity [3]: 8 M⁻¹
